Results taken from patent US12458647B2, “Macrocyclic derivative and use thereof” (Guangzhou Joyo Pharmatech Co., Ltd., priority 2022, dated 2025).
Where two headings read alike, the source gives them in different places.

System: p-ERK level in GP2D cells
Experiment: Detection of p-ERK level in GP2D cells (HTRF)
Assay type: cell-based
Details: 3 hours incubation, read-out: GP2D pERK IC50
Text: GP2D cell line (DMEM+10% FBS+1% penicillin/streptomycin) was purchased from ECACC; RPMI-1640 medium was purchased from Gibco; fetal bovine serum was purchased from Hyclone; Advanced Phospho-ERK1/2(THR202/TYR204) KIT was purchased from Bioauxilium-Advanced Phospho; ERK1/2(THR202/TYR204) KIT was composed of: Advanced PhosphoERK1/2Eu Cryptate antibody, Advanced PhosphoERK1/2 d2 antibody. Blocking reagent (stock solution 100×), Lysis buffer #1 (stock solution 4×), Detection buffer (ready-to-use), with a storage temperature of ≤−16° C. for all.
(1) The cells were seeded in a white-bottomed 384-well cell culture plate, 8 μL of cell suspension per well, each well containing 7,500 cells. The cell plate was placed in a carbon dioxide incubator and incubated overnight at 37° C.;
(2) The test compound was diluted with 100% DMSO to 3 mM as the first concentration, and then diluted with a pipette to 10 concentrations of 3,000, 1,000, 300, 100, 30, 10, 3, 1, 0.3 and 0.1 μM 2 μL of the compound was taken and added to 198 μL of cell starvation medium, mixed well, 15 μL of compound solution was taken and added to 35 μL of cell starvation medium and mixed well. […]
(5) After incubation, a multilabel plate reader was used to read the HTRF excitation: 320 nm, emission: 615 nm, and 665 nm. […]

IC50 | IC50 (GP2d) | Compound
800 pM |  | CCn1c(-c2cc(N3CCN(C)CC3)cnc2C(C)OC)c2c3cc(ccc31)-c1csc(n1)CC(NC(=O)C1CC1C(F)F)C(=O)N1NC(C(=O)OCC(C)(C)C2)C2CC1C2 (single isomer, unassigned) [Trifluoroacetate of Compound 8A]
 | 200 pM | [2H]C([2H])([2H])N1CCN(c2cnc([C@H](C)OC)c(-c3c4c5cc(ccc5n3CC)-c3csc(n3)C[C@H](NC(=O)[C@H]3[C@H](C)[C@@H]3C)C(=O)N3N[C@H](C(=O)OCC(C)(C)C4)C4CC3C4)c2)CC1 [Trifluoroacetate of Compound 12A]
